Among the data in PubChem BioAssay AID192 (DTP/NCI, 2004) are T/C values, retold here.

This experiment has as its system BDF1 mice, B16 melanoma ip, median survival T/C. The experiment is described as follows: NCI In Vivo Anticancer Drug Screen. Data for tumor model B16 Melanoma (intraperitoneal) in B6D2F1 (BDF1) mice. As to conditions: endpoint: median survival time, higher = longer survival. In outline: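 Compounds were tested in mice carrying transplantable tumors. Survival or tumor size was recorded, and each value is the treated-group measurement (T) divided by that of the vehicle-treated control group (C).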

Where [1] appears, read: dose: 0.5 mg/kg/injection, schedule: Q01DX009 (ip), vehicle: saline.
The mark [2] stands for this setting: dose: 1.0 mg/kg/injection, schedule: Q01DX009 (ip), vehicle: saline.
Setting [3] is: dose: 2.0 mg/kg/injection, schedule: Q01DX009 (ip), vehicle: saline.
Setting [4] is: dose: 4.0 mg/kg/injection, schedule: Q01DX009 (ip), vehicle: saline.
The mark [5] stands for this setting: dose: 8.0 mg/kg/injection, schedule: Q01DX009 (ip), vehicle: saline.
The mark [6] stands for this setting: dose: 25.0 mg/kg/injection, schedule: Q01DX009 (ip), vehicle: saline.
The mark [7] stands for this setting: dose: 12.5 mg/kg/injection, schedule: Q01DX009 (ip), vehicle: saline with Tween-80.
Where [8] appears, read: dose: 50.0 mg/kg/injection, schedule: Q01DX009 (ip), vehicle: saline with Tween-80.
[9] abbreviates: dose: 50.0 mg/kg/injection, schedule: Q01DX009 (ip), vehicle: saline.
The mark [10] stands for this setting: dose: 100.0 mg/kg/injection, schedule: Q01DX009 (ip), vehicle: saline.

“And” between values parts separate entries of the source, which are not always exact repeats. Equal values may be shown once. Inconclusive results and toxic doses are left out.

For the compound `COc1cc(NC(N)=O)ccc1Nc1c2ccc(N)cc2nc2cc(N)ccc12`, the T/C was 104 % of control under setting [1]; 102 % of control under setting [2]; 108 % of control under setting [3]; 102 % of control under setting [4]; 102 % of control under setting [5]; 104 % of control (dose: 16.0 mg/kg/injection, schedule: Q01DX009 (ip), vehicle: saline).
For the compound `NC1CC1c1ccccc1` (centres undefined), the T/C is 91 % of control (dose: 3.12 mg/kg/injection, schedule: Q01DX009 (ip), vehicle: saline); 101 % of control (dose: 6.25 mg/kg/injection, schedule: Q01DX009 (ip), vehicle: saline); 102 % of control (dose: 12.5 mg/kg/injection, schedule: Q01DX009 (ip), vehicle: saline); 113 % of control under setting [6].
With `CN(Cc1cnc2nc(N)nc(N)c2n1)c1c(Cl)cc(C(=O)NC(CCC(=O)O)C(=O)O)cc1Br` (centres undefined), the T/C is, setting by setting: (dose: 25.0 mg/kg/injection, schedule: Q01DX011 (ip), vehicle: saline) 101 % of control; (dose: 50.0 mg/kg/injection, schedule: Q01DX011 (ip), vehicle: saline) 105 % of control.
For the compound `N=P(N[P+](N)(c1ccccc1)c1ccccc1)(c1ccccc1)c1ccccc1`, the T/C reads like this: (dose: 1.56 mg/kg/injection, schedule: Q01DX009 (ip), vehicle: Klucel (hydroxypropylcellulose) (HPC)) 101 % of control; (dose: 3.12 mg/kg/injection, schedule: Q01DX009 (ip), vehicle: Klucel (hydroxypropylcellulose) (HPC)) 107 % of control; (dose: 6.25 mg/kg/injection, schedule: Q01DX009 (ip), vehicle: Klucel (hydroxypropylcellulose) (HPC)) 108 % of control.
Regarding `C1#CCCCCCC#CCCCC1`, the T/C was 89 % of control under setting [7]; 91 % of control (dose: 12.5 mg/kg/injection, schedule: Q04DX003 (ip), vehicle: saline with Tween-80); 97 % of control (dose: 25.0 mg/kg/injection, schedule: Q04DX003 (ip), vehicle: saline with Tween-80); 100 % of control under setting [8]; 89 % of control and 94 % of control (dose: 50.0 mg/kg/injection, schedule: Q04DX003 (ip), vehicle: saline with Tween-80).
For the compound `CC[C@@]1(O)C[C@H](OC2CC(N(C)C)C(OC3CC(O)C(OC4CCC(=O)C(C)O4)C(C)O3)C(C)O2)c2c(cc3c(c2O)C(=O)c2c(O)cccc2C3=O)[C@H]1C(=O)OC` (some centres undefined), the T/C (dose: 0.75 mg/kg/injection, schedule: Q01DX001 (ip), vehicle: water) was 100 % of control and 106 % of control and 112 % of control; the T/C (dose: 0.75 mg/kg/injection, schedule: Q01DX009 (ip), vehicle: Klucel (hydroxypropylcellulose) (HPC)) was 123 % of control; the T/C (dose: 1.5 mg/kg/injection, schedule: Q01DX001 (ip), vehicle: water) is 105 % of control and 112 % of control and 120 % of control; the T/C (dose: 1.56 mg/kg/injection, schedule: Q01DX001 (ip), vehicle: water) is 103 % of control; the T/C (dose: 2.16 mg/kg/injection, schedule: Q01DX001 (ip), vehicle: water) was 95 % of control and 97 % of control; the T/C (dose: 3.0 mg/kg/injection, schedule: Q01DX001 (ip), vehicle: water) is 110 % of control and 124 % of control. Moreover, the T/C (dose: 3.0 mg/kg/injection, schedule: Q01DX009 (ip), vehicle: saline) is 160 % of control; the T/C (dose: 3.13 mg/kg/injection, schedule: Q01DX001 (ip), vehicle: water) was 110 % of control; the T/C (dose: 3.6 mg/kg/injection, schedule: Q01DX001 (ip), vehicle: water) is 91 % of control and 101 % of control; the T/C (dose: 6.25 mg/kg/injection, schedule: Q01DX001 (ip), vehicle: water) is 124 % of control; the T/C (dose: 8.0 mg/kg/injection, schedule: Q01DX001 (ip), vehicle: water) was 106 % of control and 120 % of control; the T/C (dose: 10.0 mg/kg/injection, schedule: Q01DX001 (ip), vehicle: water) is 100 % of control. The T/C is, setting by setting: (dose: 12.0 mg/kg/injection, schedule: Q01DX001 (ip), vehicle: water) 110 % of control and 124 % of control; (dose: 12.5 mg/kg/injection, schedule: Q01DX001 (ip), vehicle: water) 114 % of control and 121 % of control; (dose: 25.0 mg/kg/injection, schedule: Q01DX001 (ip), vehicle: water) 98 % of control.
Take `CCOc1ccc(NC(=O)Nc2cccc(Cl)c2)cc1`: the T/C (dose: 100.0 mg/kg/injection, schedule: Q01DX009 (ip), vehicle: Klucel (hydroxypropylcellulose) (HPC)) is 100 % of control; the T/C (dose: 200.0 mg/kg/injection, schedule: Q01DX009 (ip), vehicle: Klucel (hydroxypropylcellulose) (HPC)) was 93 % of control; the T/C (dose: 400.0 mg/kg/injection, schedule: Q01DX009 (ip), vehicle: Klucel (hydroxypropylcellulose) (HPC)) is 96 % of control.
For the compound `O=NN(CCCl)C(=O)NC1OC(CO)C(O)C(O)C1O` (centres undefined), the T/C runs as follows: (dose: 0.16 mg/kg/injection, schedule: Q01DX009 (ip), vehicle: saline) 107 % of control; (dose: 0.31 mg/kg/injection, schedule: Q01DX009 (ip), vehicle: saline) 111 % of control and 116 % of control; (dose: 0.62 mg/kg/injection, schedule: Q01DX009 (ip), vehicle: saline) 108 % of control; (dose: 1.25 mg/kg/injection, schedule: Q01DX009 (ip), vehicle: saline) 178 % of control; (dose: 2.5 mg/kg/injection, schedule: Q01DX009 (ip), vehicle: saline) 188 % of control; (dose: 5.0 mg/kg/injection, schedule: Q01DX009 (ip), vehicle: saline) 193 % of control.
In the case of `CC(=O)OCC1OC(n2ncc(=O)[nH]c2=O)C(OC(C)=O)C1OC(C)=O` (centres undefined), the T/C is 106 % of control under setting [8]; 91 % of control (dose: 100.0 mg/kg/injection, schedule: Q01DX009 (ip), vehicle: saline with Tween-80); 95 % of control (dose: 200.0 mg/kg/injection, schedule: Q01DX009 (ip), vehicle: saline with Tween-80); 102 % of control (dose: 400.0 mg/kg/injection, schedule: Q01DX009 (ip), vehicle: saline with Tween-80); 100 % of control (dose: 800.0 mg/kg/injection, schedule: Q01DX009 (ip), vehicle: saline with Tween-80).
For the compound `C(=NCCN1CCOCC1)=NC1CCCCC1`, the T/C is, setting by setting: (dose: 3.13 mg/kg/injection, schedule: Q01DX009 (ip), vehicle: saline with Tween-80) 108 % of control; (dose: 6.25 mg/kg/injection, schedule: Q01DX009 (ip), vehicle: saline with Tween-80) 110 % of control; under setting [7], 114 % of control.
Regarding `Cc1cc(O)ccc1[N+](=O)[O-]`, the T/C is 119 % of control under setting [6], 123 % of control under setting [9] and 104 % of control under setting [10].
`CCCCCCC/C=C/C(=O)OC1C(OC2C(OC(CCCCCCC)CC(=O)OC(CCCCCCC)CC(=O)O)OC(C)C(O)C2O)OC(C)C(O)C1O` (centres undefined): the T/C reads like this: (dose: 12.5 mg/kg/injection, schedule: Q01DX009 (ip), vehicle: Klucel (hydroxypropylcellulose) (HPC)) 90 % of control; (dose: 25.0 mg/kg/injection, schedule: Q01DX009 (ip), vehicle: Klucel (hydroxypropylcellulose) (HPC)) 104 % of control; (dose: 50.0 mg/kg/injection, schedule: Q01DX009 (ip), vehicle: Klucel (hydroxypropylcellulose) (HPC)) 92 % of control.
Consider `Oc1cc2c(cc1O)[C@H]1c3ccc(O)c(O)c3OC[C@@]1(O)C2`, for which the T/C is 100 % of control under setting [6]; 102 % of control under setting [9]; 103 % of control under setting [10]; 108 % of control (dose: 200.0 mg/kg/injection, schedule: Q01DX009 (ip), vehicle: saline); 103 % of control (dose: 400.0 mg/kg/injection, schedule: Q01DX009 (ip), vehicle: saline).
As for `CC(=O)C1=C(O)C2C3c4c[nH]c5cccc(c45)CC3C(C)(C)N2C1=O` (centres undefined), the T/C was 102 % of control (dose: 0.13 mg/kg/injection, schedule: Q01DX009 (ip), vehicle: saline); 106 % of control (dose: 0.25 mg/kg/injection, schedule: Q01DX009 (ip), vehicle: saline); 106 % of control under setting [1]; 106 % of control under setting [2]; 102 % of control under setting [3]; 107 % of control under setting [4]. Further, under setting [5], the T/C is 111 % of control.
As to `CC1(C)N=C(N)N=C(N)N1c1ccc(CCCCc2cccc(S(=O)(=O)F)c2)c(Cl)c1`, the T/C is 108 % of control under setting [5]; 116 % of control (dose: 12.0 mg/kg/injection, schedule: Q01DX009 (ip), vehicle: saline); 118 % of control (dose: 18.0 mg/kg/injection, schedule: Q01DX009 (ip), vehicle: saline); 124 % of control (dose: 27.0 mg/kg/injection, schedule: Q01DX009 (ip), vehicle: saline).
